Consider one compound from US11197856B2, “Bicyclic compounds and methods for their use in treating autism” (priority 2013, dated 2021).

Series [1] relates to MeCP2 deficient mice. In words: Survival of MeCP2 deficient mice (Rett Syndrome model). The following applies: for survival: MeCP2 deficient mice. As for the experimental part: We treat hemizygous MeCP2(1lox) male mice with 20 mg/kg/day of cG-2-AllylP or saline, (0.01% BSA, n=15 per group in survival experiment and n=20 in the LTP experiment). The treatments are administered intraperitoneally from 4 weeks after birth. For the survival experiments the treatment is maintained through the course of the experiment. For the LTP experiment the mice are treated until week 9 when they are used for slice preparation.
MeCP2 deficient mutant mice develop RTT symptoms at about 4-6 weeks of age and […] (Chen et al., 2001. Nat Genet 27: 327-331). We compare the survival of the wild type controls and the MeCP2 deficient animals in vehicle- and cG-2-AllylP-treated groups. Survival is measured weekly from start of treatment (4 weeks) and used to produce Kaplan-Meier survival curves to show the proportion of mice that survive (y axis) at each weekly interval (x axis).
For the survival measurements, the nocturnal activity analysis and the immunoblot analysis, cG-2-AllylP supplied by Neuren Pharmaceuticals Limited is administered daily via intra-peritoneal injections (20 mg/kg, vehicle=saline, 0.01% BSA). The treatment starts at PI 5 and is maintained throughout the course of the experiments. For intracellular physiology experiments, the mice are injected daily with cG-2-AllylP (20 mg/kg body weight, vehicle=saline, 0.01% BSA) for 2 weeks, from P15 to P28-P32 when they are used for acute slice preparation. For optical imaging experiments, mice are injected with cG-2-AllylP (20 mg/kg body weight, vehicle=saline, 0.01% BSA) daily from the day of the lid suture to the day of imaging.
Therefore, we administer cG-2-AllylP orally to MeCP2 deficient mice. Briefly, an aqueous solution or other composition containing a pharmaceutically effective amount of cG-2-AllylP (20 or 80 mg/kg per animal) is administered daily.

Series [2] concerns interleukin 1 beta. The series is described as follows: PBBI in rats: IL-1beta ELISA. The class given is in vivo. The following applies: 30 mg/kg oral gavage once daily. The source says: The unilateral frontal PBBI model, which mimics the ballistic dynamics of a bullet or fragment wound to the head (Williams, 2003; Williams, 2006), was induced by stereotactic insertion of a custom probe through the right frontal cortex. A temporary cavity was formed by the rapid inflation/deflation (i.e. <40 msec) of an elastic balloon attached to the end of the probe. The PBBI apparatus consisted of a computer-controlled hydraulic pressure generator (Mitre Corp McLean, Va.), a PBBI probe and a stereotaxic frame equipped with a custom-designed probe holder as previously described (Lu, 2009; Williams, 2003). The injury severity was determined by the size of the balloon under control of the computerized hydraulic pressure. The balloon diameter calibrated to 0.63 cm expansion represented 10% of the total rat brain volume thus expressing a 10% PBBI. All surgeries were done under anaesthesia. Groups tested: Sham+vehicle, PBBI+vehicle, PBBI+cG-2-AllylP (30 mg/kg by oral gavage, 30 min post-injury, and again once daily until endpoint). […]
Target proteins were quantified with interleukin 1 beta (“IL-1beta”) (GenWay Biotech GWB-SKR107) and interleukin-6 (“IL-6”) (GenWay Biotech GWB-ZZD100) ELISAs according to manufacturer's instructions. Levels were calculated and normalized to total protein concentration as determined by BCA assay (n=9-10 per group).

The subject of series [3] is AMPA receptors GluR1. The series is described as follows: AMPA glutamate receptor-1 immunohistochemical staining of hippocampus. The class given is in vivo, male Wistar rats. Here is the method: Aged rats (male Wistar rats, 18-20 months old) were divided into four groups: two vehicle-treated (groups 1 and 3) and two G-2-AllylP treated (groups 2 and 4) (all groups n=6-8). Cyclic G-2-AllylP was synthesised by the Department of Medicinal Chemistry and dissolved in normal saline before the treatment. On day 1 a single dose of cyclic G-2-AllylP was given centrally (20 ng/animal, i.c.v.) to the animals in groups 2 and 4; saline was administered to groups 1 and 3. The memory tests using Novel Object Recognition Test started either on day 3 (groups 1 and 2) or 24 (groups 3 and 4) after the treatment. On the completion of the NORT, the rats were killed with an overdose of sodium pentobarbital and were perfused transcardially with normal saline followed by 10% formalin. Tissues collected at day 7 in groups 1 and 2, and at day 28 from groups 3 and 4. The brains were kept in the same fixative for a minimum of 2 days before being processed using a standard paraffin embedding procedure. Briefly, small blocks (10×10×3 mm) of tissue were fixed for up to 24 hrs. The blocks were then infiltrated and embedded with paraffin and cut in ribbons and mounted on slides. […]
The following antibodies were used: • i) primary rabbit antibody to NMDA NR1 subunit, at 1:200 concentration in buffer, incubated for 48 hrs (Chemicon—AB1516), followed by Sigma fluorescent secondary antibody (alexaFluor 394), at 1:200 dilution, incubated for 24 hours at 40C. • ii) primary antibody to AMPA GluR1 subunit, at 1:30 concentration in buffer, incubated for 48 hrs (Chemicon—AB1504) followed by 3,3′-diaminobenzidine (DAB) at 1:200 dilution, incubated for 24 hours at 40C. • iii) Primary antibody to mSynaptophysin (Sigma—S5768), at 1:200 concentration in buffer, followed by DAB at 1:200 dilution, incubated for 24 hours at 40C. • iv) Primary antibody to rKrox-24 (Santa Cruz—catalogue number SC-189) at 1:200 concentration in the buffer, followed by anti-rabbit secondary antibody at concentration of 1:200 dilution, incubated for 24 hours at 40C. • y) Antibodies were detected using light microscopy. […]

Molecules are shown by their SMILES.

As for `C=CC[C@]12CCCN1C(=O)CNC2=O` [cG-2-AllylP, (8aS)-Allyl-hexahydropyrrolo[1,2-a]pyrazine-1,4-dione], in series [1] (MeCP2-/y mice, 20 mg/kg daily intra-peritoneal from P15), the life expectancy entry was “increase in life expectancy”. The survival result in series [1] (20 mg/kg/day intraperitoneally from 4 weeks) was “survive substantially longer than saline-treated mice”; in series [1] (oral, 20 or 80 mg/kg daily), “survival is increased substantially”. The safety concerns entry in series [1] (mecp2 mice, 20 mg/kg/day intraperitoneally) is “No safety concerns are raised”. For the same compound, the IL1-beta levels result was “increased IL1-beta levels at 3 days after PBBI” in series [2] (3 days after PBBI) and “decreased levels of IL1-beta at 7 days after PBBI” in series [2] (7 days after PBBI). Further, the “number of AMPA receptors GluR1” value in series [3] (CA1 granular cell layer, day 28) is reported as “significant increase in the number of AMPA receptors”; in series [3] (CA1 stratum oriens, day 28) it was “significant increase in the number of AMPA receptors”; in series [3] (CA3, day 7 or 28, 20 ng/animal i.c.v.) it was “no change in the number of receptors”.
